{
  "source": "patent EP1501797B1",
  "about": "“3-(SUBSTITUTED AMINO)-1H-INDOLE-2-CARBOXYLIC ACID ESTER AND 3-(SUBSTITUTED AMINO)-BENZO[B]THIOPHENE-2-CARBOXYLIC ACID ESTER DERIVATIVES AS INTERLEUKIN-4 GENE EXPRESSION INHIBITORS” (Aventis Pharmaceuticals Inc., priority 2002, dated 2003)",
  "key": {"[1]": {"system": "eosinophil", "assay": "OVA-induced lung inflammation in Brown Norway rats, eosinophil influx into bronchoalveolar fluid", "format": "in vivo", "details": "Rattus norvegicus, ip, intraperitoneal injection, FIG. 2, read-out: ED50, inhibition of the influx of eosinophil", "description": "Rat model was very similar to the mouse models described earlier. Briefly, the lung inflammatory model described by Haczku et al. was used with minor modifications (Haczku A., et al., Immunology, (1996), 88, 247-251). Male Brown Norway rats, weighing 160-200 grams were sensitized with intraperitoneal injection of 1ml of a suspension containing ovalbumin (1 mg) and Al(OH)3 (100 mg) on days 1, 2 and 3. Three weeks later, the rats were treated with vehicle or drugs via intraperitoneal injections. One hour later, the rats were challenged with ovalbumin inhalation (1% solution, 10 mg/ml in sterilized saline) for 20 minutes in a 10 liter Plexiglas chamber which was connected to a DeVilbiss (Ultra-NEB®99) nebulizer with a carrier air flow of 1 liter/minute.\nResults of dose response studies of 3-(4-pyridinylamino)-1H-indole-2-carboxylic acid on eosinophil influx into the bronchoalveolar fluid of ovalbumin sensitized and challenged Brown Norway rats are depicted as bar graphs in FIG. 2. Single dose of cyclosporin A (CsA) and dexamethasone (Dex) were also included as reference standards."}, "[2]": {"system": "human IFN-γ promoter", "assay": "IFN-γ Luc assay in Jurkat cells", "format": "cell-based", "details": "Jurkat cell line; concentration not given; 480 min"}, "[3]": {"system": "IFN-γ", "assay": "Human primary Th1 (NYTh1) cells, IFN-γ ELISA", "format": "cell-based", "details": "data from 8 different experiments combined", "description": "Briefly, CD4^+CD45RA^+ T cells, isolated from donor peripheral blood mononuclear cells of healthy donors, are educated in the presence of anti-CD3/CD28 antibodies and various growth factors to obtain either a Thl-like or Th2-like phenotypes as determined by the known cytokine profiles of these two cell types.\nGeneration of Th1/Th2 cells: Twenty four well plates are coated with 300 µL anti-CD3 Ab (10 µg/ml, in PBS 1-2 h at 37°C or overnight at 4°C), and washed two times with PBS. CD4^+/CD45RA^+ cells at a density of 10^6/ml in RPMI, is prepared and added to RPMI medium containing 10% Hyclone serum/ glutamine and 1-2 µg/ml anti-CD28 Ab. The cells are split in two aliquots. […] The degree of polarization is determined by intracellular staining of cells with anti-IFN-γ and anti-IL-4 antibodies from Pharmingen, and using flow cytometry from Becton Dickinson (BD), according to manufacturers description. […] For compound testing, large quantities of Th1 and Th2 cells derived from a given donor (NYTh1 and NYTh2) were expanded and frozen as aliquots in liquid nitrogen. […]\nRe-stimulation by allogeneic cells: Human PBMCs, to be used as alloantigens, are isolated from freshly drawn blood by Ficoll separation. […] Cells are counted and diluted to a final concentration of 2 x 10^6/ml in medium containing 10 µg/ml PHA and 200 units/ml IL-2. […]"}},
  "data": [
    {"molecule": "O=C(O)c1[nH]c2ccccc2c1Nc1ccncc1", "note": "[Example 28, 3-(4-Pyridinylamino)-1H-indole-2-carboxylic acid]", "values": [
      {"measurement": "ED50", "setting": "[1]", "value": 10.1, "unit": "mg/kg"},
      {"measurement": "2.7-IFN-γ -Luc (% of control)", "setting": "[2]", "value": "100 ± 15 % of control"},
      {"measurement": "IC50", "setting": "[3]", "value": "> 10", "unit": "µM"}
    ]}
  ]
}
